Laboratory results taken from patent publication US4713453A, “Oxabicycloheptane derivatives” (Suntori Limited, priority 1986, dated 1987).

Tests used:
[1] = system: Male ddY mice; assay: Anti-cerebroischemic effect (brain protection after ischemia by decapitation): gasping time; assay type: in vivo, mouse (male ddY); conditions: intraperitoneal, 30 min before decapitation
Description: 1. Anti-cerebroischemic effect (i.e., brain protection after ischemia by decapitation)
Male ddY mice weighing 22-30 g were used in groups each consisting of 6 animals. Test compounds were administered intraperitoneally to the mice which were decapitated 30 minutes after the administration. The gasping time, or the duration of time between the onset of panting after decapitation and its cessation, was measured, and this was compared with the gasping time for a control group which were given only a liquid vehicle.

[2] = system: peroxylipid formation; assay: Anti-lipidperoxidation effect (TBA assay of malondialdehyde in rat brain homogenate); assay type: biochemical, rat (male Wistar); conditions: for Inhibition of peroxylipid formation: 10 μl (10^-4 M) test compound in 990 μl sample, 37° C., 30 minutes, pH 7.4; for anti-lipidperoxidation effects: rat brain homogenate
Description: 3. Anti-lipidperoxidation effect
Male Wistar rats weighing 200-250 g were used. The brain of each rat was extracted after decapitation, homogenized with 50 mM of a phosphate buffer solution (PBS, pH 7.4) and centrifuged at 1,000 g for 15 minutes. The supernatant was stored frozen at -30° C. Before use, it was thawed under flowing water and diluted with PBS three-fold to prepare a live sample.
Two samples were prepared by adding 10 μl (10^-4 M) of a test compound in solution to 990 μl of the live sample. One sample was incubated at 37° C. for 30 minutes and reaction was quenched by addition of 0.2 ml of 35% aqueous perchloric acid. The other sample was immediately mixed with 35% perchloric acid without incubation. Each of the mixtures was centrifuged at 3,000 rpm for 15 minutes and 0.5 ml of the supernatant was subjected to TBA assay (Yagi et al., Anal. Biochem., 95, 351 (1979)) for determining the malondialdehyde (MDA) content (×10^-4 M) by subtracting the peroxylipid level for the unincubated mixture from that for the incubated mixture. The percent inhibition of peroxylipid formation was calculated by the following formula: [formula] where A is the MDA content of a treated sample and B is the value for a control sample that was not treated with any test compound.

CN(C)CCON=C1c2ccccc2OC2(c3ccccc3)CC12 (centres unmarked) [Example 1, 3,4-Benzo-5-(2-dimethylaminoethyl)oxyimino-1-phenyl-2-oxabicyclo[4.1.0]heptane]
prolongation of gasping time ([1]; 25 mg/kg): significantly prolonging the gasping time
Inhibition of peroxylipid formation [2]: 56.9%

CN(C)CCON=C1c2ccc(Cl)cc2OC2(c3ccccc3)CC12 (centres unmarked) [Example 8, 3,4-(3-Chlorobenzo)-5-(2-dimethylaminoethyl)oxaimino-1-phenyl-2-oxabicyclo[4.1.0]heptane]
prolongation of gasping time ([1]; 25 mg/kg): significantly prolonging the gasping time
Inhibition of peroxylipid formation [2]: 90.2%
anti-lipidperoxidation effects [2]: strong anti-lipidperoxidation effects

CN(C)CCCON=C1c2ccc(Cl)cc2OC2(c3ccccc3)CC12 (centres unmarked) [Example 9]
prolongation of gasping time ([1]; 25 mg/kg): significantly prolonging the gasping time
Inhibition of peroxylipid formation [2]: 82.7%
anti-lipidperoxidation effects [2]: strong anti-lipidperoxidation effects

CN(C)CCCON=C1c2ccc(Cl)cc2OC2(c3ccc([N+](=O)[O-])cc3)CC12 (centres unmarked) [Example 12, 3,4-(3-Chlorobenzo)-5-(3-dimethylaminopropyl)oxyimino-1-(4-nitrophenyl)-2-oxabicyclo[4.1.0]heptane]
Inhibition of peroxylipid formation [2]: 99.0%
anti-lipidperoxidation effects [2]: strong anti-lipidperoxidation effects

CCN(CC)CCCON=C1c2ccccc2OC2(c3ccccc3)CC12 (centres unmarked) [Example 16]
Inhibition of peroxylipid formation [2]: 83.3%
anti-lipidperoxidation effects [2]: strong anti-lipidperoxidation effects

CN(C)CCCCON=C1c2ccccc2OC2(c3ccccc3)CC12 (centres unmarked) [Example 19, 3,4-Benzo-5-(4-dimethylaminobutyl)oxyimino-1-phenyl-2-oxabicyclo[4.1.0]heptane]
Inhibition of peroxylipid formation [2]: 52.6%

CNCCCCON=C1c2ccccc2OC2(c3ccccc3)CC12 (centres unmarked) [Example 20, 3,4-Benzo-5-(4-methylaminobutyl)oxyimino-1-phenyl-2-oxabicyclo[4.1.0]heptan]
prolongation of gasping time ([1]; 25 mg/kg): significantly prolonging the gasping time

CN(C)CCCOC1c2ccccc2OC2(c3ccccc3)CC12 (centres unmarked) [Example 24, 3,4-Benzo-5-(3-dimethylaminopropyl)oxy-1-phenyl-2-oxabicyclo[4.1.0]heptane]
prolongation of gasping time ([1]; 12.5 mg/kg): significant prolongation of the gasping time
prolongation of gasping time ([1]; 25 mg/kg): significantly prolonging the gasping time

CN(C)CCOC1c2ccc(Cl)cc2OC2(c3ccccc3)CC12 (centres unmarked) [Example 26, 3,4-(3-Chlorobenzo)-5-(2-dimethylaminoethyl)oxy-1-phenyl-2-oxabicyclo[4.1.0]heptane]
prolongation of gasping time ([1]; 25 mg/kg): significantly prolonging the gasping time
Inhibition of peroxylipid formation [2]: 79.1%

CN(C)CCCOC1c2ccc(Cl)cc2OC2(c3ccccc3)CC12 (centres unmarked) [Example 27, 3,4-(3-Chlorobenzo)-5-(3-dimethylaminopropyl)oxy-1-phenyl-2-oxabicyclo[4.1.0]heptane]
prolongation of gasping time ([1]; 12.5 mg/kg): significant prolongation of the gasping time
prolongation of gasping time ([1]; 25 mg/kg): significantly prolonging the gasping time
Inhibition of peroxylipid formation [2]: 62.0%

CN(C)CCCON=C1c2ccc(O)cc2OC2(c3ccccc3)CC12 (centres unmarked) [Example 34, 3,4-(3-Hydroxybenzo)-5-(3-dimethylaminopropyl)oxyimino-1-phenyl-2-oxabicyclo[4.1.0]heptane]
Inhibition of peroxylipid formation [2]: 79.9%

CN(C)CCCOC1c2ccc(O)cc2OC2(c3ccccc3)CC12 (centres unmarked) [Example 35, 3,4-(3-Hydroxybenzo)-5-(3-dimethylaminopropyl)oxy-1-phenyl-2-oxabicyclo[4.1.0]heptane]
Inhibition of peroxylipid formation [2]: 69.0%
